Test results: publication PMC4490394 (Scientific Reports, 2015)
Numbering of substitutions follows the chain as printed.

Experiments:
VCaP cells = test: VCaP proliferation assay (WST-1); type: cell-based; details: Homo sapiens, 96 h, 0.1 nM mibolerone, steroid-depleted medium, 4 days, WST-1, read-out: IC50, androgen-induced VCaP cell proliferation
Protocol: VCaP cells were treated with a submaximal concentration of mibolerone (0.1 nM) and increasing concentrations of test compounds in steroid-free assay medium supplemented with 4 mM GlutaMAX. After a 4-day incubation with the compounds, cell viability was measured using a WST-1 cell proliferation assay (Roche), according to manufacturer’s instructions.

H1581 lung cancer cells = test: Viability of AR-negative cells (WST-1); type: cell-based, human; details: increasing concentrations, 4 days
[1] = Pharmacokinetic parameters in mice after 7 days oral dosing; type: in vivo; details: male, BALB/c or Balb/cOlaHsd nude, mouse, plasma, 50 mg/kg bid oral
Protocol: Control mice received vehicle. […] Brain samples (without olfactory bulbs and medulla oblongata) from each group and time point were pooled and homogenized before the analysis. […] Plasma and brain concentration vs. time were evaluated by noncompartmental analysis using WinNonlin® Professional v. 5.2 software (Pharsight Corporation). Brain/plasma ratios were calculated based on AUC0–24 values for plasma and brain.

AR(T877A) = biological target: T1, AR(T877A) (Homo sapiens, UniProt P10275, T878A)
T1 sequence (P10275 1-920 T878A): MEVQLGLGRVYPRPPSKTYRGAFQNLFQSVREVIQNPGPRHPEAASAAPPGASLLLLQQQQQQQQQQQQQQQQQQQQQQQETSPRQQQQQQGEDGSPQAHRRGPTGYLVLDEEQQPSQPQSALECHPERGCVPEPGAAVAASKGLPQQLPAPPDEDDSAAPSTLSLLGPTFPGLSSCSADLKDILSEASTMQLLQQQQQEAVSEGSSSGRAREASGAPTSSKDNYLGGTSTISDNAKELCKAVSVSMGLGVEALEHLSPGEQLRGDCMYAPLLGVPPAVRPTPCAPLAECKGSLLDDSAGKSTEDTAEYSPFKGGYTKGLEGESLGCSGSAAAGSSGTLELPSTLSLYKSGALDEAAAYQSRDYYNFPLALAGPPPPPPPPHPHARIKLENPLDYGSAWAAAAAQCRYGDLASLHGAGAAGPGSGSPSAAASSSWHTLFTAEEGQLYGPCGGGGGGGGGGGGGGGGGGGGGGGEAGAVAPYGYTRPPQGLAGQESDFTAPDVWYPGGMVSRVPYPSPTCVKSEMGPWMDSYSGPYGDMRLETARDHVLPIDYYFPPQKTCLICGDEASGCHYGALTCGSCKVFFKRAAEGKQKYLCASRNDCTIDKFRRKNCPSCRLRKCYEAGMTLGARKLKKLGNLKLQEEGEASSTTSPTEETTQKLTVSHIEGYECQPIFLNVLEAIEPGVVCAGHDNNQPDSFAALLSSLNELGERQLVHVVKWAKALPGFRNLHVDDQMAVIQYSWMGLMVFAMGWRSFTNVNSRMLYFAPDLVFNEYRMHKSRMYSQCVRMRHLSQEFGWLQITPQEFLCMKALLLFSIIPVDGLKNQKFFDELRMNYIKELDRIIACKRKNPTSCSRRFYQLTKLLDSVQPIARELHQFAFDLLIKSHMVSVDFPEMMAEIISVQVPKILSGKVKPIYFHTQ
Protocol: (§1) For one well in a 96-well plate, 190 ng of reporter construct DNA and 10 ng of receptor construct DNA were diluted in Opti-MEM® (Gibco). […] Luciferase activity was measured as described above.

AR(F876L) = biological target: T2, AR(F876L) (Homo sapiens, UniProt P10275, F877L)
T2 sequence (P10275 1-920 F877L): T1 sequence (P10275 1-920 T878A) with F877L, A878T
Protocol: as §1

[2] = tested on: AR nuclear translocation in HS-HEK293 cells
Protocol: AR overexpressing HS-HEK293 cells immunolabeled with an AR-antibody were imaged either with a high-content screening (HCS) reader (Cellomics ArrayScan HCS VTI reader, Thermo) or with a confocal microscope (LSM780, Zeiss). HS-HEK293 cells in steroid-free assay medium were plated on poly-D-lysine coated microplates (BD) (HCS reader) or on coverslips (confocal imaging). After a 48-hour incubation, the cells were treated with 0.3 (HCS reader) or 1 μM (confocal imaging) of test compounds together with 0.3 nM testosterone for 5 hours. […] Cells were washed, DNA was labeled with DAPI (Sigma, 1 μg//mL), and images were analyzed with a NucTrans. V3 assay algorithm (Thermo). […] Coverslips were mounted with Vectashield containing DAPI (Vector Laboratories).

CC(O)c1cc(C(=O)N[C@@H](C)Cn2ccc(-c3ccc(C#N)c(Cl)c3)n2)[nH]n1 (stereo partly shown) [ODM-201]
IC50 (VCaP cells): 230 nM
effect on viability of H1581 cells (H1581 lung cancer cells): no effect
AUC ([1]; read-out: AUC24): 175 µg·h/mL
half-life ([1]; read-out: T 1/2 (plasma half-life) (converted)): 96 min
functional activity (agonist/antagonist) on AR(T877A) (AR(T877A)): full antagonists
functional activity (agonist/antagonist) on AR(F876L) (AR(F876L)): full antagonists
effect on testosterone-induced nuclear translocation of AR [2]: inhibit
